Patent US8299111B2, “Compounds which modulate the CB2 receptor” (Boehringer Ingelheim International GmbH, priority 2006, dated 2012)

Target: T1, human CB2R (Homo sapiens, UniProt P34972)
T1 construct: host or cells: CHO cells
Assay: CB2R mediated modulation of cAMP synthesis
Format: cell-based
Conditions: found through the use of the above described assays (binding and cAMP); CHO cells expressing human CB2R, forskolin-stimulated cAMP
How it was run: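 CHO cells expressing human CB2R were treated for 30 min at 37 °C with compound in buffer containing 1 mM IBMX, 0.25% BSA and 10 uM forskolin. cAMP was measured after lysis. EC50 is the concentration giving 50% inhibition of forskolin-stimulated cAMP, scaled to the level set by 1 uM CP55940, fitted by four-parameter logistic.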

T1 sequence (P34972 whole entry): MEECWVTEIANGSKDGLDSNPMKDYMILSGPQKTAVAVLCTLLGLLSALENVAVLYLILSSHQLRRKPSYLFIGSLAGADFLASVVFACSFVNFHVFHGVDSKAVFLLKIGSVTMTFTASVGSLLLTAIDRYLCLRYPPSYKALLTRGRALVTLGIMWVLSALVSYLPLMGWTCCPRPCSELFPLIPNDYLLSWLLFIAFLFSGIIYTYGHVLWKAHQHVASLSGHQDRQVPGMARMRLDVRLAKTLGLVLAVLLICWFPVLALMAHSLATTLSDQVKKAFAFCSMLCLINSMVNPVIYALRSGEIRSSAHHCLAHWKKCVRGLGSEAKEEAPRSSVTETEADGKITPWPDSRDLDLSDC

SMILES | agonistic activity
CC(C)(C(=O)Nc1nc(C(F)(F)F)cs1)S(=O)(=O)c1ccc(S(C)(=O)=O)cc1 [2-methyl-2-{[4-(methylsulfonyl)phenyl]sulfonyl}-N-[4-(trifluoromethyl)-1,3-thiazol-2-yl]propanamide] | agonistic activity
CC(C)(C(=O)Nc1cc(C(F)(F)F)ccn1)S(=O)(=O)c1ccc(S(C)(=O)=O)cc1 [2-methyl-2-{[4-(methylsulfonyl)phenyl]sulfonyl}-N-[4-(trifluoromethyl)pyridin-2-yl]propanamide] | agonistic activity
CC(C)(C(=O)Nc1ccc(C(F)(F)F)cn1)S(=O)(=O)c1ccc(S(C)(=O)=O)cc1 [2-methyl-2-{[4-(methylsulfonyl)phenyl]sulfonyl}-N-[5-(trifluoromethyl)pyridin-2-yl]propanamide] | agonistic activity
CC(C)(C(=O)Nc1cccc(C(F)(F)F)n1)S(=O)(=O)c1ccc(S(C)(=O)=O)cc1 [2-methyl-2-{[4-(methylsulfonyl)phenyl]sulfonyl}-N-[6-(trifluoromethyl)pyridin-2-yl]propanamide] | agonistic activity
CC(C)(C(=O)Nc1nc(C(F)(F)F)cs1)S(=O)(=O)c1ccc(C(F)(F)F)nc1 [2-methyl-2-{[6-(trifluoromethyl)pyridin-3-yl]sulfonyl}-N-[4-(trifluoromethyl)-1,3-thiazol-2-yl]propanamide] | agonistic activity
CC(C)(C(=O)Nc1cccc2ccccc12)S(=O)(=O)c1ccc(C(F)(F)F)nc1 [2-methyl-N-1-naphthyl-2-{[6-(trifluoromethyl)pyridin-3-yl]sulfonyl}propanamide] | agonistic activity
Cn1nc(-c2ccccc2)cc1NC(=O)C(C)(C)S(=O)(=O)c1ccc(S(C)(=O)=O)cc1 [2-methyl-N-(1-methyl-3-phenyl-1H-pyrazol-5-yl)-2-{[4-(methylsulfonyl)phenyl]sulfonyl}propanamide] | agonistic activity
CCCc1cc(NC(=O)C(C)(C)S(=O)(=O)c2ccc(C(F)(F)F)nc2)on1 [2-methyl-N-(3-propylisoxazol-5-yl)-2-{[6-(trifluoromethyl)pyridin-3-yl]sulfonyl}propanamide] | agonistic activity
CC(C)(C(=O)Nc1nc(-c2ccccc2)cs1)S(=O)(=O)c1ccc(C(F)(F)F)nc1 [2-methyl-N-(4-phenyl-1,3-thiazol-2-yl)-2-{[6-(trifluoromethyl)pyridin-3-yl]sulfonyl}propanamide] | agonistic activity
Cc1sc(NC(=O)C(C)(C)S(=O)(=O)c2ccc(S(C)(=O)=O)cc2)nc1-c1ccccc1 [2-methyl-N-(5-methyl-4-phenyl-1,3-thiazol-2-yl)-2-{[4-(methylsulfonyl)phenyl]sulfonyl}propanamide] | agonistic activity
Cc1sc(NC(=O)C(C)(C)S(=O)(=O)c2ccc(C(F)(F)F)nc2)nc1-c1ccccc1 [2-methyl-N-(5-methyl-4-phenyl-1,3-thiazol-2-yl)-2-{[6-(trifluoromethyl)pyridin-3-yl]sulfonyl}propanamide] | agonistic activity
Cc1ccc(NC(=O)C(C)(C)S(=O)(=O)c2ccc(C(F)(F)F)nc2)nc1 [2-methyl-N-(5-methylpyridin-2-yl)-2-{[6-(trifluoromethyl)pyridin-3-yl]sulfonyl}propanamide] | agonistic activity
CC(C)(C(=O)Nc1nsc(-c2ccccc2)n1)S(=O)(=O)c1ccc(C(F)(F)F)nc1 [2-methyl-N-(5-phenyl-1,2,4-thiadiazol-3-yl)-2-{[6-(trifluoromethyl)pyridin-3-yl]sulfonyl}propanamide] | agonistic activity
CC(C)(C(=O)Nc1cccc(C(F)(F)F)c1)S(=O)(=O)c1ccc(C(F)(F)F)nc1 [2-methyl-N-[3-(trifluoromethyl)phenyl]-2-{[6-(trifluoromethyl)pyridin-3-yl]sulfonyl}propanamide] | agonistic activity
CC(C)(C(=O)Nc1ccc(C(F)(F)F)cc1)S(=O)(=O)c1ccc(C(F)(F)F)nc1 [2-methyl-N-[4-(trifluoromethyl)phenyl]-2-{[6-(trifluoromethyl)pyridin-3-yl]sulfonyl}propanamide] | agonistic activity
CC(C)(C(=O)Nc1cccc(C(F)(F)F)n1)S(=O)(=O)c1ccc(C(F)(F)F)nc1 [2-methyl-N-[6-(trifluoromethyl)pyridin-2-yl]-2-{[6-(trifluoromethyl)pyridin-3-yl]sulfonyl}propanamide] | agonistic activity
CC(C)(C(=O)Nc1ccc2ccccc2n1)S(=O)(=O)c1ccc(C(F)(F)F)nc1 [2-methyl-N-quinolin-2-yl-2-{[6-(trifluoromethyl)pyridin-3-yl]sulfonyl}propanamide] | agonistic activity
CC(C)(C(=O)Nc1cnc2ccccc2c1)S(=O)(=O)c1ccc(C(F)(F)F)nc1 [2-methyl-N-quinolin-3-yl-2-{[6-(trifluoromethyl)pyridin-3-yl]sulfonyl}propanamide] | agonistic activity

SMILES | agonistic activity
CC(C)C(C(=O)Nc1ccc(C(F)(F)F)cn1)S(=O)(=O)c1ccc(C(F)(F)F)cc1 (stereo not drawn) [3-Methyl-2-(4-trifluoromethyl-benzenesulfonyl)-N-(5-trifluoromethyl-pyridin-2-yl)-butyramide] | agonistic activity
CC(C)C(C(=O)Nc1cccc(C(F)(F)F)n1)S(=O)(=O)c1ccc(C(F)(F)F)cc1 (stereo not drawn) [3-Methyl-2-(4-trifluoromethyl-benzenesulfonyl)-N-(6-trifluoromethyl-pyridin-2-yl)-butyramide] | agonistic activity
CC(C)(C)c1csc(NC(=O)C2(S(=O)(=O)c3ccc(C(F)(F)F)cc3)CCOCC2)n1 [4-(4-Trifluoromethyl-benzenesulfonyl)-tetrahydro-pyran-4-carboxylic acid (4-tert-butyl-thiazol-2-yl)-amide] | agonistic activity
Cn1nc(C(C)(C)C)cc1NC(=O)C1(S(=O)(=O)c2ccc(C(F)(F)F)cc2)CCOCC1 [4-(4-Trifluoromethyl-benzenesulfonyl)-tetrahydro-pyran-4-carboxylic acid (5-tert-butyl-2-methyl-2H-pyrazol-3-yl)-amide] | agonistic activity
Cc1nc(NC(=O)C2(S(=O)(=O)c3ccc(C(F)(F)F)cc3)CCOCC2)sc1C(C)(C)C [4-(4-Trifluoromethyl-benzenesulfonyl)-tetrahydro-pyran-4-carboxylic acid (5-tert-butyl-4-methyl-thiazol-2-yl)-amide] | agonistic activity
CC(C)(C)c1cc(NC(=O)C2(S(=O)(=O)c3ccc(C(F)(F)F)cc3)CCOCC2)no1 [4-(4-Trifluoromethyl-benzenesulfonyl)-tetrahydro-pyran-4-carboxylic acid (5-tert-butyl-isoxazol-3-yl)-amide] | agonistic activity
O=C(Nc1ccc(C(F)(F)F)cn1)C1(S(=O)(=O)c2ccc(C(F)(F)F)cc2)CCOCC1 [4-(4-Trifluoromethyl-benzenesulfonyl)-tetrahydro-pyran-4-carboxylic acid (5-trifluoromethyl-pyridin-2-yl)-amide] | agonistic activity
O=C(Nc1cccc(C(F)(F)F)n1)C1(S(=O)(=O)c2ccc(C(F)(F)F)cc2)CCOCC1 [4-(4-Trifluoromethyl-benzenesulfonyl)-tetrahydro-pyran-4-carboxylic acid (6-trifluoromethyl-pyridin-2-yl)-amide] | agonistic activity
CC(C)(C(=O)Nc1nc2ccccc2s1)S(=O)(=O)c1ccc(Cl)cc1F [N-1,3-benzothiazol-2-yl-2-[(4-chloro-2-fluorophenyl)sulfonyl]-2-methylpropanamide] | agonistic activity
CC(C)(C(=O)Nc1nc2ccccc2s1)S(=O)(=O)c1ccc(C(F)(F)F)nc1 [N-1,3-benzothiazol-2-yl-2-methyl-2-{[6-(trifluoromethyl)pyridin-3-yl]sulfonyl}propanamide] | agonistic activity
CC(C)(C(=O)Nc1nc2ccccc2o1)S(=O)(=O)c1ccc(Cl)cc1F [N-1,3-benzoxazol-2-yl-2-[(4-chloro-2-fluorophenyl)sulfonyl]-2-methylpropanamide] | agonistic activity
CC(C)(C(=O)Nc1nc2ccccc2o1)S(=O)(=O)c1ccc(S(C)(=O)=O)cc1 [N-1,3-benzoxazol-2-yl-2-methyl-2-{[4-(methylsulfonyl)phenyl]sulfonyl}propanamide] | agonistic activity
CC(C)(C(=O)Nc1nc2ccccc2o1)S(=O)(=O)c1ccc(C(F)(F)F)nc1 [N-1,3-benzoxazol-2-yl-2-methyl-2-{[6-(trifluoromethyl)pyridin-3-yl]sulfonyl}propanamide] | agonistic activity
COc1ccc(S(=O)(=O)C(C)(C)C(=O)Nc2c(C)c(-c3ccccc3)nn2C)cc1 [N-(1,4-dimethyl-3-phenyl-1H-pyrazol-5-yl)-2-[(4-methoxyphenyl)sulfonyl]-2-methylpropanamide] | agonistic activity
Cc1c(-c2ccccc2)nn(C)c1NC(=O)C(C)(C)S(=O)(=O)c1ccc(C(F)(F)F)nc1 [N-(1,4-dimethyl-3-phenyl-1H-pyrazol-5-yl)-2-methyl-2-{[6-(trifluoromethyl)pyridin-3-yl]sulfonyl}propanamide] | agonistic activity
CC(C)(C(=O)Nc1ccccc1Cl)S(=O)(=O)c1ccc(C(F)(F)F)cc1 [N-(2-Chloro-phenyl)-2-methyl-2-(4-trifluoromethyl-benzenesulfonyl)-propionamide] | agonistic activity
CC(C)(C)c1ccccc1NC(=O)C(C)(C)S(=O)(=O)c1ccc(Cl)cc1 [N-(2-tert-Butyl-phenyl)-2-(4-chloro-benzenesulfonyl)-2-methyl-propionamide] | agonistic activity
CC(C)(C)c1cc(NC(=O)C(C)(C)S(=O)(=O)c2ccc(Cl)cc2)ccn1 [N-(2-tert-butylpyridin-4-yl)-2-[(4-chlorophenyl)sulfonyl]-2-methylpropanamide] | agonistic activity
